Data set [1] has as its target human cannabinoid CB1 receptor (Homo sapiens, UniProt P21554). Put plainly: biochemical. It is filed as binding. Further details: expressed in transfected cells; host or cells: Chinese hamster ovary (CHO) cells, membrane preparation. Conditions: [3H]CP-55,940 radioligand, CHO cell membranes stably transfected with human CB1. On the procedure:
After incubation of a freshly prepared cell membrane preparation with the [^3H]-ligand, with or without addition of compounds of the invention, separation of bound and free ligand was performed by filtration over glassfiber filters. Radioactivity on the filter was measured by liquid scintillation counting.

Read-outs that look alike come from different tables or passages of the source. Bounds are passed on as bounds.

A word on the melting point: it is the temperature, or range, at which the solid turns liquid.

human cannabinoid CB1 receptor, sequence (P21554 whole entry): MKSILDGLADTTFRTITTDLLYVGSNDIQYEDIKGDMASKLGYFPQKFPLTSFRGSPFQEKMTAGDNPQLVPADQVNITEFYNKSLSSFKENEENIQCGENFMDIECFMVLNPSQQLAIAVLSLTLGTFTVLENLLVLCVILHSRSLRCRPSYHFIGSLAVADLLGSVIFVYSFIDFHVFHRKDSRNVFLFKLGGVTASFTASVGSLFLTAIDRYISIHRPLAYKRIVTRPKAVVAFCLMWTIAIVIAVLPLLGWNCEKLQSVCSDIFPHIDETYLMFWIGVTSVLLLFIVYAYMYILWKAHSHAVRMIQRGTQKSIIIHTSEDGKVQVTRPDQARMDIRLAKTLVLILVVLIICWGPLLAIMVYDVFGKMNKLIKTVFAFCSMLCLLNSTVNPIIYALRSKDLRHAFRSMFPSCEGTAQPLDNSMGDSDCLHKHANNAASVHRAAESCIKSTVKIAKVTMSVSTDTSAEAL

Regarding `CS(=O)(=O)c1c(C(=O)NC2CCCCC2)nc(-c2ccc(Cl)cc2Cl)n1-c1ccc(Cl)cc1` [Example 119, 1-(4-chlorophenyl)-2-(2,4-dichlorophenyl)-5-methylsulfonyl-N-(cyclohexyl)-1H-imidazole-4-carboxamide], in data set [1] (hCB1 pKi), the Ki was 63.1 nM.

Molecule `Cc1c(C(=O)NC2CCCCC2)nc(-c2cc(Cl)ccc2Cl)n1-c1ccccc1` [Example 96, N-Cyclohexyl-2-(2,5-dichlorophenyl)-5-methyl-1-phenyl-1H-imidazole-4-carboxamide] registered a melting point of 236 °C. For the same molecule, the Ki in data set [1] (hCB1 pKi) is 6.31 nM.

In the case of `CCc1c(C(=O)NC2CCCCC2)nc(-c2ccc(Cl)cc2Cl)n1-c1ccc(Cl)cn1` [Example 78, 1-(5-Chloropyridin-2-yl)-N-cyclohexyl-2-(2,4-dichlorophenyl)-5-ethyl-1H-imidazole-4-carboxamide], the melting point is 149 °C. The molecule also had a Ki in data set [1] (hCB1 pKi) of 3.16 nM.

`CCCCCNC(=O)c1nc(-c2ccc(Cl)cc2OC)n(-c2ccc(Cl)cc2)c1C` [Example 59, 1-(4-Chlorophenyl)-2-(2-methoxy-4-chlorophenyl)-5-methyl-N-(n-pentyl)-1H-imidazole-4-carboxamide] returned a melting point of 131 °C. The molecule further showed a Ki in data set [1] (hCB1 pKi) of 501 nM.

In turn, `Cc1c(C(=O)NCCF)nc(-c2ccc(Cl)cc2Cl)n1-c1ccc(Cl)cc1` [Example 85, 1-(4-Chlorophenyl)-2-(2,4-dichlorophenyl)-N-(2-fluoroethyl)-5-methyl-1H-imidazole-4-carboxamide] registered a melting point of 128 to 133 °C. In data set [1] (hCB1 pKi), this molecule gave a Ki of 25.1 nM.

Take `CCCCCNC(=O)c1cn(-c2cccnc2)c(-c2ccc(Cl)cc2Cl)n1`: the melting point came out at 117 °C.

Take `Cc1c(C(=O)NC2CCCCC2)nc(-c2ccc(Cl)cc2Cl)n1-c1ccc(F)cc1`: the melting point was 229 to 230 °C.

On to `O=C(NN1CCCCC1)c1nc(-c2ccc(Cl)cc2Cl)n(-c2ccc(Cl)cc2)c1CF` [Example 114, 1-(4-chlorophenyl)-2-(2,4-dichlorophenyl)-5-fluoromethyl-N-(piperidin-1-yl)-1H-imidazole-4-carboxamide], for which the melting point is 162 to 163 °C. In data set [1] (hCB1 pKi), this molecule gave a Ki of 63.1 nM.

As for `CCCCCNC(=O)c1nc(-c2ccc(Cl)cc2Cl)n(-c2ccc(Cl)cn2)c1CC` [Example 79, 1-(5-Chloropyridin-2-yl)-2-(2,4-dichlorophenyl)-5-ethyl-N-(n-pentyl)-1H-imidazole-4-carboxamide], the Ki in data set [1] (hCB1 pKi) was 15.8 nM.

As to `CCc1c(C(=O)NN2CCCCCC2)nc(-c2ccc(Cl)cc2Cl)n1-c1ccc(Cl)cn1` [Example 77, N-(1-Azepanyl)-1-(5-Chloropyridin-2-yl)-2-(2,4-dichlorophenyl)-5-ethyl-1H-imidazole-4-carboxamide], the melting point stood at 177 °C. Also, in data set [1] (hCB1 pKi), the Ki is 31.6 nM.

Regarding `Cc1c(C(=O)NC2CCCCC2)nc(-c2ccc(Cl)cc2F)n1-c1ccc(Cl)cc1` [Example 68, 1-(4-Chlorophenyl)-N-(cyclohexyl)-2-(2-fluoro-4-chlorophenyl)-5-methyl-1H-imidazole-4-carboxamide], the melting point is 188 °C. The same molecule showed a Ki in data set [1] (hCB1 pKi) of 200 nM.

Molecule `Cc1c(C(=O)NN2CCCCC2)nc(-c2cc(Cl)ccc2Cl)n1-c1ccccc1` [Example 95, 2-(2,5-Dichlorophenyl)-5-methyl-1-phenyl-N-(piperidin-1-yl)-1H-imidazole-4-carboxamide] displayed a melting point of 227 °C. The molecule also had a Ki in data set [1] (hCB1 pKi) of 63.1 nM.

In the case of `CCCCCNC(=O)c1nc(-c2ccc(Cl)cc2Cl)n(-c2ccc(Cl)cc2)c1C` [Example 91, 1-(4-Chlorophenyl)-2-(2,4-dichlorophenyl)-5-methyl-N-(n-pentyl)-1H-imidazole-4-carboxamide], the Ki in data set [1] (hCB1 pKi) was 31.6 nM.

`Cc1c(C(=O)NN2CCCCC2)nc(-c2ccc(Cl)cc2F)n1-c1ccc(Cl)cc1` [Example 66, 1-(4-Chlorophenyl)-2-(2-fluoro-4-chlorophenyl)-5-methyl-N-(piperidin-1-yl)-1H-imidazole-4-carboxamide] had a melting point of 195 °C. In addition, in data set [1] (read-out: hCB1 pKi (converted)), the Ki was 501 nM.

The molecule `CCc1c(C(=O)NC2CCCCC2)nc(-c2ccc(C)n2C)n1-c1ccccc1` had a melting point of 195 to 196 °C.

`O=C(NN1CCCCC1)c1cn(-c2ccc(Cl)cc2)c(-c2ccc(Cl)cc2F)n1` [Example 30, 1-(4-Chlorophenyl)-2-(2-fluoro-4-chlorophenyl)-N-(piperidin-1-yl)-1H-imidazole-4-carboxamide] gave a melting point of 217 to 218 °C. For the same molecule, in data set [1] (hCB1 pKi), the Ki was 25.1 nM.

In the case of `COc1cc(Cl)ccc1-c1nc(C(=O)NC2CCCCC2)c(C)n1-c1ccc(Cl)cc1`, the melting point is 201 °C.

Take `Cc1c(C(=O)C2NCCc3ccccc32)nc(-c2ccc(Cl)cc2Cl)n1-c1ccc(Cl)cc1` (stereo not shown) [Example 88, 1-{[1-(4-Chlorophenyl)-2-(2,4-dichlorophenyl)-5-methyl-1H-imidazol-4-yl]carbonyl}-1,2,3,4-tetrahydroisoquinoline]: the melting point fell in the range of 143 to 146 °C.

Take `CCN(CC)C(=O)c1cn(-c2ccc(Cl)cc2)c(-c2ccc(Cl)cc2Cl)n1`: the melting point lay within 177 to 179 °C.

`O=C(NN1CCCCC1)c1cn(-c2cccnc2)c(-c2ccc(Cl)cc2Cl)n1` [Example 42, 2-(2,4-Dichlorophenyl)-1-(pyridin-3-yl)-N-(piperidin-1-yl)-1H-imidazole-4-carboxamide] yielded a melting point of 165 to 170 °C.

With `CCCCCNC(=O)c1nc(-c2ccc(Cl)cc2Cl)n(-c2ccc(Cl)cn2)c1C` [Example 55, 1-(5-Chloropyridin-2-yl)-2-(2,4-dichlorophenyl)-5-methyl-N-(n-pentyl)-1H-imidazole-4-carboxamide], the Ki in data set [1] (hCB1 pKi) was 50.1 nM.

Turning to `O=C(NN1CCCC1)c1cn(-c2ccc(Br)cc2)c(-c2ccc(Cl)cc2Cl)n1`, the melting point fell in the range of 238 to 240 °C.

`CCCCCNC(=O)c1cn(-c2ccc(Cl)cc2)c(-c2ccc(Cl)cc2OC)n1`: the melting point is 115 °C.

Turning to `CSc1c(C(=O)NC2CCCCC2)nc(-c2ccc(Cl)cc2Cl)n1-c1ccc(Cl)cc1` [Example 121, 1-(4-chlorophenyl)-2-(2,4-dichlorophenyl)-5-methylsulfanyl-N-(cyclohexyl)-1H-imidazole-4-carboxamide], the Ki in data set [1] (hCB1 pKi) is 63.1 nM.

In turn, `CCCCCNC(=O)c1nc(-c2ccccc2Cl)n(-c2cccc(F)c2)c1C` gave a melting point of 97 to 102 °C.

On to `O=C(NC1CCCCC1)c1cn(-c2cccnc2)c(-c2ccc(Cl)cc2Cl)n1`, for which the melting point was 195 °C.

For the molecule `O=C(NCC(F)(F)F)c1cn(-c2ccc(Cl)cc2)c(-c2ccc(Cl)cc2C(F)(F)F)n1`, the melting point amounted to 149 °C.

Take `O=C(Nc1ccccc1)c1cn(-c2ccc(Cl)cc2)c(-c2ccc(Cl)cc2Cl)n1` [Example 4, 1-(4-Chlorophenyl)-2-(2,4-dichlorophenyl)-N-phenyl-1H-imidazole-4-carboxamide]: the Ki in data set [1] (read-out: hCB1 pKi (converted)) is 126 nM.

`Cc1cccnc1-c1nc(C(=O)NC2CCCCC2)c(C)n1-c1ccc(Cl)cc1` had a melting point of 188 to 190 °C.

`Cc1c(C(=O)NN2CCCCCC2)nc(-c2ccc(Cl)cc2Cl)n1-c1ccc(Cl)cn1` [Example 53, N-(1-Azepanyl)-1-(5-Chloropyridin-2-yl)-2-(2,4-dichlorophenyl)-5-methyl-1H-imidazole-4-carboxamide] gave a Ki in data set [1] (hCB1 pKi) of 50.1 nM.

In turn, `COc1cc(Cl)ccc1-c1nc(C(=O)NN2CCCCC2)c(C)n1-c1ccc(Cl)cc1` showed a melting point greater than 256 °C.

Take `Cc1c(C(=O)N(C)C)nc(-c2ccc(Cl)cc2Cl)n1-c1ccc(Cl)cc1` [Example 50, 1-(4-Chlorophenyl)-2-(2,4-dichlorophenyl)-N,N,5-trimethyl-1H-imidazole-4-carboxamide]: the Ki in data set [1] (hCB1 pKi) is 5.01 nM.

Turning to `Cc1c(C(=O)NC2CCCCC2)nc(-c2ccc(Cl)cc2Cl)n1-c1ccc(Cl)cn1` [Example 54, 1-(5-Chloropyridin-2-yl)-N-cyclohexyl-2-(2,4-dichlorophenyl)-5-methyl-1H-imidazole-4-carboxamide], the Ki in data set [1] (hCB1 pKi) was 100 nM.

In turn, `CCc1c(C(=O)NC2CCCCC2)nc(-c2cc(Cl)ccc2Cl)n1-c1ccccc1` showed a melting point of 198 to 199 °C.

Consider `Cc1c(C(=O)NC2CC3CCC2C3)nc(-c2ccc(Cl)cc2Cl)n1-c1ccc(Cl)cc1` (stereo not drawn) [Example 89, N-(Endo-bicyclo[2.2.1]hept-2-yl)-1-(4-chlorophenyl)-2-(2,4-dichlorophenyl)-5-methyl-1H-imidazole-4-carboxamide], for which the Ki in data set [1] (hCB1 pKi) is 6.31 nM.

`Cc1cccnc1-c1nc(C(=O)NN2CCCCC2)c(C)n1-c1ccc(Cl)cc1` yielded a melting point of 211 to 213 °C.

`O=C(NC12CC3CC(CC(C3)C1)C2)c1cn(-c2ccc(Cl)cc2)c(-c2ccc(Cl)cc2C(F)(F)F)n1` gave a melting point of 288 °C.

`Cc1c(C(=O)NC2CCCCC2)nc(-c2ccc(Cl)cc2C(F)(F)F)n1-c1ccc(Cl)cc1` came in with a melting point of 212 °C.

Consider `Cc1c(C(=O)NOC(C)(C)C)nc(-c2ccc(Cl)cc2)n1-c1ccc(Cl)cc1Cl` [Example 11, N-(t-Butoxy)-2-(4-chlorophenyl)-1-(2,4-dichlorophenyl)-5-methyl-1H-imidazole-4-carboxamide], for which, in data set [1] (read-out: hCB1 pKi (converted)), the Ki is 501 nM.

Turning to `Cc1c(C(=O)NC2CCCCC2)nc(-c2ccc(Cl)cc2Cl)n1-c1cc(F)ccc1F` [Example 98, N-Cyclohexyl-2-(2,4-dichlorophenyl)-1-(2,5-difluorophenyl)-5-methyl-1H-imidazole-4-carboxamide], the melting point was 206 to 208 °C.

`CCc1c(C(=O)NC2CCCCC2)nc(-c2ccc(Cl)cc2Cl)n1-c1cc(F)ccc1F` [Example 97, N-Cyclohexyl-2-(2,4-dichlorophenyl)-1-(2,5-difluorophenyl)-5-ethyl-1H-imidazole-4-carboxamide] had a melting point of 144 to 146 °C.

On to `CCc1c(C(=O)NN2CCCCC2)nc(-c2cc(Cl)ccc2Cl)n1-c1ccccc1`, for which the melting point is 207 to 208 °C.

The values above are taken from patent US7109216B2 (priority 2001, dated 2006).
